Data from publication PMC9090566 (RSC Advances, 2018).

Biological target: T4 polynucleotide kinase (T4 PNK) (Tequatrovirus T4, UniProt P06855)
Type: biochemical

Sequence of T4 polynucleotide kinase (T4 PNK) (P06855 whole entry): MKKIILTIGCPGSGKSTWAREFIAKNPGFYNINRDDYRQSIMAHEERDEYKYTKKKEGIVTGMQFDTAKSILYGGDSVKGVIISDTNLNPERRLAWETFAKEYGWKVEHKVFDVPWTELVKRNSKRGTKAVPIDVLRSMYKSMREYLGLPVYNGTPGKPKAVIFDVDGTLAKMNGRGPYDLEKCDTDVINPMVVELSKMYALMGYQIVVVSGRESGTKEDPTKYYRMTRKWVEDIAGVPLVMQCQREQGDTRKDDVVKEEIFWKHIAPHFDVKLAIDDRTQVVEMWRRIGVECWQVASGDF

Structure (SMILES): O=S(=O)(O)O [(NH4)2SO4]
- IC50: 18 mM
